Measurements reported in patent US6992169B2, “Carrier based drug delivery system” (Cyclacel Limited, priority 1998, dated 2006).
Where no end group is shown, it is not given here.

Columns and labels:
[1] = Serum stability of peptide vectors; details: for half-life: bovine, serum
Procedure: Test compounds were dissolved in cell-conditioned tissue culture medium (10% FCS in DMEM) at concentrations varying from 1 to 40 μM. The solutions were incubated at 37° C. and samples were withdrawn at intervals. After filtration, aliquots were analysed by RP-HPLC (using a photodiode array UV detector). Intact vectors were identified by reference to chromatograms obtained with authentic peptides and by DE MALDI-TOF analysis of appropriate peak fractions. […] The latter was chosen preferentially in order to replicate the conditions used for cytotoxicity assays on cell cultures.

[2] = Serum stability of drug-ester linkages; type: in vitro ADME; details: bovine, 10% FCS in DMEM, 1 to 40 μM, 37° C., appearance of free drug, read-out: Serum t1/2 of Drug-Linker Ester bond
Procedure: Hydrolysis of the ester bonds between the drug hydroxy groups and the linker carboxyl groups was assessed by appearance of free podophyllotoxin or paclitaxel.

| Compound | half-life [1] | also measured |
| --- | --- | --- |
| CC[C@H](C)[C@H](NC(=O)[C@H](CCCCN)NC(=O)[C@@H](NC(=O)[C@H](CCC(N)=O)NC(=O)[C@@H](N)CCCNC(=N)N)[C@@H](C)CC)C(=O)N[C@@H](Cc1c[nH]c2ccccc12)C(=O)N[C@@H](Cc1ccccc1)C(=O)N[C@@H](CCC(N)=O)C(=O)N[C@@H](CC(N)=O)C(=O)N[C@@H](CCCNC(=N)N)C(=O)N[C@@H](CCCNC(=N)N)C(=O)N[C@@H](CCSC)C(=O)N[C@@H](CCCCN)C(=O)N[C@@H](Cc1c[nH]c2ccccc12)C(=O)N[C@@H](CCCCN)C(=O)N[C@@H](CCCCN)C(N)=O | > 12 h | – |
| CC[C@H](C)[C@H](NC(=O)[C@H](CCCCN)NC(=O)[C@@H](NC(=O)[C@H](CCC(N)=O)NC(=O)[C@H](CCCNC(=N)N)NC(=O)[C@@H](N)CSC1CC(=O)N(CCC(=O)O[C@@H](C(=O)O[C@H]2C[C@@]3(O)[C@@H](OC(=O)c4ccccc4)[C@@H]4[C@]5(OC(C)=O)CO[C@@H]5C[C@H](O)[C@@]4(C)C(=O)[C@H](OC(C)=O)C(=C2C)C3(C)C)[C@@H](NC(=O)c2ccccc2)c2ccccc2)C1=O)[C@@H](C)CC)C(=O)N[C@@H](Cc1c[nH]c2ccccc12)C(=O)N[C@@H](Cc1ccccc1)C(=O)N[C@@H](CCC(N)=O)C(=O)N[C@@H](CC(N)=O)C(=O)N[C@@H](CCCNC(=N)N)C(=O)N[C@@H](CCCNC(=N)N)C(=O)N[C@@H](CCSC)C(=O)N[C@@H](CCCCN)C(=O)N[C@@H](Cc1c[nH]c2ccccc12)C(=O)N[C@@H](CCCCN)C(=O)N[C@@H](CCCCN)C(N)=O (single isomer, unassigned) [C] | – | half-life ([2]; cell-conditioned tissue culture medium (FCS in DMEM)): > 12 h |
| CCC(C)[C@H](NC(=O)[C@H](CCCCN)NC(=O)[C@@H](NC(=O)[C@H](CCC(N)=O)NC(=O)[C@H](CCCNC(=N)N)NC(=O)[C@@H](N)CSCC(=O)O[C@H]1c2cc3c(cc2[C@@H](c2cc(OC)c(OC)c(OC)c2)[C@H]2C(=O)OC[C@@H]21)OCO3)C(C)CC)C(=O)N[C@@H](Cc1c[nH]c2ccccc12)C(=O)N[C@@H](Cc1ccccc1)C(=O)N[C@@H](CCC(N)=O)C(=O)N[C@@H](CC(N)=O)C(=O)N[C@@H](CCCNC(=N)N)C(=O)N[C@@H](CCCNC(=N)N)C(=O)N[C@@H](CCSC)C(=O)N[C@@H](CCCCN)C(=O)N[C@@H](Cc1c[nH]c2ccccc12)C(=O)N[C@@H](CCCCN)C(=O)N[C@@H](CCCCN)C(=O)O (stereo partly drawn) [B] | – | half-life [2]: 0.667 h |
| CC[C@@H](C)[C@@H](NC(=O)[C@@H](CCCCN)NC(=O)[C@H](NC(=O)[C@@H](CCC(N)=O)NC(=O)[C@H](N)CCCNC(=N)N)[C@H](C)CC)C(=O)N[C@H](Cc1c[nH]c2ccccc12)C(=O)N[C@H](Cc1ccccc1)C(=O)N[C@H](CCC(N)=O)C(=O)N[C@H](CC(N)=O)C(=O)N[C@H](CCCNC(=N)N)C(=O)N[C@H](CCCNC(=N)N)C(=O)N[C@H](CCSC)C(=O)N[C@H](CCCCN)C(=O)N[C@H](Cc1c[nH]c2ccccc12)C(=O)N[C@H](CCCCN)C(=O)N[C@H](CCCCN)C(N)=O [H-D-Arg-D-Gln-D-Ile-D-Lys-D-Ile-D-Trp-D-Phe-D-Gln-D-Asn-D-Arg-D-Arg-D-Met-D-Lys-D-Trp-D-Lys-D-Lys-NH3] | > 24 h | – |
| H-RRMKWKK-NH2 [H-Arg-Arg-Met-Lys-Trp-Lys-Lys-NH2] | 3 h | – |
| RQIKIWFQNRRMKWK [15mer peptide] | – | Serum stability of vector in words [1]: survive for several h |
